Results: ChEMBL document CHEMBL4270566, “New aziridine-based inhibitors of cathepsin L-like cysteine proteases with selectivity for the Leishmania cysteine protease LmCPB2.8” (Eur J Med Chem, 2018)
Active and inactive are the calls of the source. The rule behind the calls is not given here.

Experiments:
[1] = target: T1, Procathepsin L (Homo sapiens, UniProt P07711); experiment: Inhibition of human cathepsin-L using Z-Phe-Arg-AMC as substrate by fluorometric assay
Target sequence in this assay (P07711 whole entry): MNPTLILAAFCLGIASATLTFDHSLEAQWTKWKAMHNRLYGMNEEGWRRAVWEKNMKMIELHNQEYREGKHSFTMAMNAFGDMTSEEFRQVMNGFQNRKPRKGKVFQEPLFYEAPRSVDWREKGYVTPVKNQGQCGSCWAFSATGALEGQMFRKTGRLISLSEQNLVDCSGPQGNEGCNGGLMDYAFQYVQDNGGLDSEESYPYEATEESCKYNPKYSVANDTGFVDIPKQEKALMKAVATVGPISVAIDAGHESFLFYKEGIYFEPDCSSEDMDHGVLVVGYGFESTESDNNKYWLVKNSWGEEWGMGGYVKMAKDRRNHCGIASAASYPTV

[2] = target: Cruzipain (Trypanosoma cruzi, UniProt P25779); experiment: Inhibition of Trypanosoma cruzi cruzain using Z-Phe-Arg-AMC as substrate by fluorometric assay
[3] = tested on: Leishmania major; experiment: Antileishmanial activity against luciferase-fused Leishmania major amastigotes infected in BMDM after 24 hrs by luminescence assay; format: functional, organism-based
[4] = target: Cathepsin B (Homo sapiens, UniProt P07858); experiment: Inhibition of human cathepsin-B at 20 uM using Z-Phe-Arg-AMC as substrate by fluorometric assay relative to control
[5] = tested on: Leishmania major; experiment: Antileishmanial activity against Leishmania major promastigotes; format: functional, organism-based
[6] = target: T2, Falcipain 2 (Plasmodium falciparum, UniProt Q9N6S8); experiment: Inhibition of Plasmodium falciparum falcipain 2 using Z-Phe-Arg-AMC as substrate by fluorometric assay
T2 sequence (Q9N6S8 whole entry): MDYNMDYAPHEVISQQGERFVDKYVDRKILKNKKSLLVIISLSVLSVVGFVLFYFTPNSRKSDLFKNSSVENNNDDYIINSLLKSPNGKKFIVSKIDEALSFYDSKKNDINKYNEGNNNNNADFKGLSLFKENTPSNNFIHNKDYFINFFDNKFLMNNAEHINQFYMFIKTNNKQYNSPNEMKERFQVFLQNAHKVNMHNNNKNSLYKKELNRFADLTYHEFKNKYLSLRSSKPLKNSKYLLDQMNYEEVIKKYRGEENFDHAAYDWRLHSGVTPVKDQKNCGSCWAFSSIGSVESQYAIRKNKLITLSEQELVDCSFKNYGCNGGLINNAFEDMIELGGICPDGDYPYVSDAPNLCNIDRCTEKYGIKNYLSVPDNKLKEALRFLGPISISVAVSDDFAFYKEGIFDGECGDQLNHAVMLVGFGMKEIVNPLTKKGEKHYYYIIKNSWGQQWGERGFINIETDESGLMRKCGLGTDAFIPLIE

[7] = Inhibition of Leishmania mexicana cathepsin L-like protease CPB2.8 using Z-Phe-Arg-AMC as substrate by fluorometric assay
[8] = tested on: J774; experiment: Cytotoxicity against mouse J774 cells; format: cell-based
[9] = target: Rhodesain (Trypanosoma brucei rhodesiense, UniProt Q95PM0); experiment: Inhibition of Trypanosoma brucei rhodesiense rhodesain using Z-Phe-Arg-AMC as substrate by fluorometric assay
[10] = target: T3, Falcipain 2 (Plasmodium falciparum) (UniProt Q9N6S8); experiment: Inhibition of Plasmodium falciparum falcipain 2 at 20 uM using Z-Phe-Arg-AMC as substrate by fluorometric assay relative to control
T3 sequence (whole entry): T2 sequence (Q9N6S8 whole entry)

[11] = target: T1, Procathepsin L; experiment: Inhibition of human cathepsin-L at 20 uM using Z-Phe-Arg-AMC as substrate by fluorometric assay relative to control
Target sequence in this assay (P07711 114-333 limits assumed): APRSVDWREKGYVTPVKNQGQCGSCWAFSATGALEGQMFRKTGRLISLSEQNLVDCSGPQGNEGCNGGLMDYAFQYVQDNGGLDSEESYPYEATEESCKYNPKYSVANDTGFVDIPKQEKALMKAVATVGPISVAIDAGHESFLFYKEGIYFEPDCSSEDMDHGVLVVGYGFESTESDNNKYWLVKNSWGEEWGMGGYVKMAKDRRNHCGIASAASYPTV

[12] = tested on: Leishmania major; experiment: Antileishmanial activity against Leishmania major promastigotes at 20 uM; format: functional, organism-based
[13] = target: Rhodesain (Trypanosoma brucei rhodesiense) (UniProt Q95PM0); experiment: Inhibition of Trypanosoma brucei rhodesiense rhodesain at 20 uM using Z-Phe-Arg-AMC as substrate by fluorometric assay relative to control
[14] = tested on: Leishmania mexicana; experiment: Inhibition of Leishmania mexicana cathepsin L-like protease CPB2.8 at 20 uM using Z-Phe-Arg-AMC as substrate by fluorometric assay relative to control
[15] = target: Cruzipain (Trypanosoma cruzi) (UniProt P25779); experiment: Inhibition of Trypanosoma cruzi cruzain at 20 uM using Z-Phe-Arg-AMC as substrate by fluorometric assay relative to control
[16] = target: T3, Falcipain 2 (Plasmodium falciparum); experiment: Inhibition of Plasmodium falciparum falcipain 2 assessed as second order inactivation rate constant using Z-Phe-Arg-AMC as substrate by fluorometric assay
[17] = target: Rhodesain (Trypanosoma brucei rhodesiense) (UniProt Q95PM0); experiment: Inhibition of Trypanosoma brucei rhodesiense rhodesain assessed as second order inactivation rate constant using Z-Phe-Arg-AMC as substrate by fluorometric assay
[18] = tested on: Leishmania mexicana; experiment: Inhibition of Leishmania mexicana cathepsin L-like protease CPB2.8 assessed as second order inactivation rate constant using Z-Phe-Arg-AMC as substrate by fluorometric assay
[19] = target: Cruzipain (Trypanosoma cruzi) (UniProt P25779); experiment: Inhibition of Trypanosoma cruzi cruzain assessed as second order inactivation rate constant using Z-Phe-Arg-AMC as substrate by fluorometric assay
[20] = target: T1, Procathepsin L; experiment: Inhibition of human cathepsin-L assessed as second order inactivation rate constant using Z-Phe-Arg-AMC as substrate by fluorometric assay
Target sequence in this assay (P07711 114-333 limits assumed): as above

Cruzipain, sequence (P25779 whole entry, the tested form may be a part): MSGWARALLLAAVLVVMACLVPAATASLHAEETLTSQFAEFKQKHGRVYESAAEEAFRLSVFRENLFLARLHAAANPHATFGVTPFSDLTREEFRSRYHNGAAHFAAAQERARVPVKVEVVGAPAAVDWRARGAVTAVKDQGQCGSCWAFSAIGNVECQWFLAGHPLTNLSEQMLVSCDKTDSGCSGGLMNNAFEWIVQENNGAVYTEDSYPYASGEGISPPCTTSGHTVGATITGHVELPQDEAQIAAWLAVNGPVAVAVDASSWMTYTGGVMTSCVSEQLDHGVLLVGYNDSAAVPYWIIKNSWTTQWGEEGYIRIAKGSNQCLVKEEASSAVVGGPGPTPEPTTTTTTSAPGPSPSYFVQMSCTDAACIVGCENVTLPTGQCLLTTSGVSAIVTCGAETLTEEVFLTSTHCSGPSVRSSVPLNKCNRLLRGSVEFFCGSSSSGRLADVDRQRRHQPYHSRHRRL
Rhodesain, sequence (Q95PM0 whole entry): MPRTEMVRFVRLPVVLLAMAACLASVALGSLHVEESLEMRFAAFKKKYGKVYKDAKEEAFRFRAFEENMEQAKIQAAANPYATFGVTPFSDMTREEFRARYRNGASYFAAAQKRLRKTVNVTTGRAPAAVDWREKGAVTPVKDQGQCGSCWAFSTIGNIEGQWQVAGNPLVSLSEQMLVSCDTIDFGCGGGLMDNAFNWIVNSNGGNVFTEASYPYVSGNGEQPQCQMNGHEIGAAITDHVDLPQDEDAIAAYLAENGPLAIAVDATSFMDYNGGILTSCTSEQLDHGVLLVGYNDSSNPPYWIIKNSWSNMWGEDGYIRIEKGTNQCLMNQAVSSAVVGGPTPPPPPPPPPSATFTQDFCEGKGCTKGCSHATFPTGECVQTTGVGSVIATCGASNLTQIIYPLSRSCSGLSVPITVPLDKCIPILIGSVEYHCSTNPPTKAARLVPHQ
Rhodesain (Trypanosoma brucei rhodesiense), sequence (Q95PM0 1-450): as the sequence (Q95PM0 whole entry) above
Cruzipain (Trypanosoma cruzi), sequence (P25779 123-467 limits assumed): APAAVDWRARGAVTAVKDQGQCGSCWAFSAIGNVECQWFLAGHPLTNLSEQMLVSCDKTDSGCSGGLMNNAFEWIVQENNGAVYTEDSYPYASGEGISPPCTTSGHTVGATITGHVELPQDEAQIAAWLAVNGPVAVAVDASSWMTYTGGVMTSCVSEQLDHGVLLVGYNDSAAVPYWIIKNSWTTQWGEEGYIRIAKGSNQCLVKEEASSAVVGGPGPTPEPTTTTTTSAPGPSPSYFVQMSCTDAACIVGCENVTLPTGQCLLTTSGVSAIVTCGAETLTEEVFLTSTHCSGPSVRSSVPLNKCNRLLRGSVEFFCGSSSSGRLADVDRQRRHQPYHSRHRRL

Row | Ki [2] [µM] | EC50 [3] [nM] | inhibition [4] | EC50 [5] [µM] | Ki [6] [µM] | Ki [7] [nM] | inhibition [10] | inhibition [11] | inhibition [13] [%] | inhibition [14] [%] | inhibition [15] [%] | SMILES | Ki [1] [µM] | Activity [8] [µM] | Ki [9] [nM] | Activity [12] | K [16] [M⁻¹ min⁻¹] | K [17] [M⁻¹ min⁻¹] | K [18] [M⁻¹ min⁻¹] | K [19] [M⁻¹ min⁻¹] | K [20] [M⁻¹ min⁻¹]
1 | 0.9 | 2200 | inactive | 39.6 | 43.9 | 1700 |  |  |  |  |  | CC(C)C[C@H](NC(=O)OC(C)(C)C)C(=O)N1CCC[C@@H]1C(=O)N1[C@H](C(=O)OCc2ccccc2)[C@H]1C(=O)OCc1ccccc1 | 6 |  |  |  |  |  |  |  | 
2 | 0.79 | 2700 | inactive | 35.4 | 28.3 | 2100 |  |  |  |  |  | CC(C)C[C@@H](NC(=O)OC(C)(C)C)C(=O)N1CCC[C@H]1C(=O)N1[C@H](C(=O)OCc2ccccc2)[C@H]1C(=O)OCc1ccccc1 | 4 |  |  |  |  |  |  |  | 
3 |  | 2000 |  | 9.8 |  |  |  |  |  |  |  | CC[C@H](C)[C@H](NC(=O)OC(C)(C)C)C(=O)N1CCC[C@@H]1C(=O)N1[C@@H](C(=O)OCc2ccccc2)[C@@H]1C(=O)OCc1ccccc1 |  | > 250 |  |  |  |  |  |  | 
4 |  | 2200 |  | 34.8 |  |  |  |  |  |  |  | CC(C)[C@H](NC(=O)OC(C)(C)C)C(=O)N1CCC[C@@H]1C(=O)N1[C@@H](C(=O)OCc2ccccc2)[C@@H]1C(=O)OCc1ccccc1 |  | > 250 |  |  |  |  |  |  | 
5 |  |  | inactive |  |  |  | inactive | inactive |  |  |  | CC(C)C[C@@H](NC(=O)OC(C)(C)C)C(=O)N1CCC[C@@H]1C(=O)N1[C@H](C(=O)OCc2ccccc2)[C@H]1C(=O)OCc1ccccc1 |  |  |  | inactive |  |  |  |  | 
6 |  |  | inactive |  |  |  | inactive | inactive |  |  |  | CC(C)C[C@H](NC(=O)OC(C)(C)C)C(=O)N1CCC[C@H]1C(=O)N1[C@H](C(=O)OCc2ccccc2)[C@H]1C(=O)OCc1ccccc1 |  |  |  | inactive |  |  |  |  | 
7 |  |  | inactive |  |  | 770 | < 50% | < 50% | < 50 | > 50 | < 50 | CC(C)C[C@H](NC(=O)OC(C)(C)C)C(=O)N1CCC[C@@H]1C(=O)N1C(C(=O)OCC2CCCCC2)C1C(=O)OCC1CCCCC1 (mixture of isomers) |  |  |  |  |  |  |  |  | 
8 |  |  | inactive |  |  | 900 | < 50% | < 50% | < 50 | > 50 | < 50 | CC(C)C[C@H](NC(=O)OC(C)(C)C)C(=O)N1CCC[C@@H]1C(=O)N1C(C(=O)OCCCc2ccccc2)C1C(=O)OCCCc1ccccc1 (mixture of isomers) |  |  |  |  |  |  |  |  | 
9 |  |  | inactive |  |  | 800 | < 50% | < 50% | < 50 | > 50 | < 50 | CC(C)C[C@H](NC(=O)OC(C)(C)C)C(=O)N1CCC[C@@H]1C(=O)N1C(C(=O)OCc2ccccc2)C1C(=O)OCc1ccc2ccccc2c1 (mixture of isomers) |  |  |  |  |  |  |  |  | 
10 | 7.6 |  | inactive |  |  | 1800 | < 50% | < 50% | < 50 | > 50 | > 50 | CC(C)C[C@H](NC(=O)OC(C)(C)C)C(=O)N1CCC[C@@H]1C(=O)N1C(C(=O)OCc2ccccc2)C1C(=O)OCC1CCCCC1 (mixture of isomers) |  |  |  |  |  |  |  |  | 
11 |  |  | inactive |  |  | 1360 | < 50% | < 50% | < 50 | > 50 | < 50 | CC(C)C[C@H](NC(=O)OC(C)(C)C)C(=O)N1CCC[C@@H]1C(=O)N1C(C(=O)OCCCc2ccccc2)C1C(=O)OCc1ccccc1 (mixture of isomers) |  |  |  |  |  |  |  |  | 
12 | 7.7 |  | inactive |  |  | 1600 | < 50% | < 50% | < 50 | > 50 | > 50 | CC(C)C[C@H](NC(=O)OC(C)(C)C)C(=O)N1CCC[C@@H]1C(=O)N1C(C(=O)OCCc2ccccc2)C1C(=O)OCCc1ccccc1 (mixture of isomers) |  |  |  |  |  |  |  |  | 
13 |  |  | inactive |  | 28.6 |  | > 50% | < 50% | < 50 | < 50 | < 50 | CC(C)C[C@H](NC(=O)OC(C)(C)C)C(=O)N1CCC[C@@H]1C(=O)N1C(C(=O)O)C1C(=O)OCCCc1ccccc1 (mixture of isomers) |  |  |  |  | 3350 |  |  |  | 
14 | 5.5 |  | inactive |  |  | 1920 | < 50% | < 50% | < 50 | > 50 | > 50 | CC(C)C[C@H](NC(=O)OC(C)(C)C)C(=O)N1CCC[C@@H]1C(=O)N1C(C(=O)OCCc2ccccc2)C1C(=O)OCc1ccccc1 (mixture of isomers) |  |  |  |  |  |  |  |  | 
15 |  |  | inactive |  |  |  | < 50% | < 50% | < 50 | < 50 | < 50 | CC(C)C[C@H](NC(=O)OC(C)(C)C)C(=O)N1CCC[C@@H]1C(=O)N1C(C(=O)O)C1C(=O)OC(C)(C)C (mixture of isomers) |  |  |  |  |  |  |  |  | 
16 |  |  | inactive |  |  |  | < 50% | < 50% | < 50 | < 50 | < 50 | CC(C)C[C@H](NC(=O)OC(C)(C)C)C(=O)N1CCC[C@@H]1C(=O)N1C(C(=O)OCc2ccccc2)C1C(=O)OC(C)(C)C (mixture of isomers) |  |  |  |  |  |  |  |  | 
17 |  |  | inactive |  |  |  | < 50% | < 50% | < 50 | < 50 | < 50 | CCOC(=O)C1C(C(=O)O)N1C(=O)[C@H]1CCCN1C(=O)[C@H](CC(C)C)NC(=O)OC(C)(C)C (mixture of isomers) |  |  |  |  |  |  |  |  | 
18 |  |  | inactive |  |  |  | < 50% | < 50% | < 50 | < 50 | < 50 | CCOC(=O)C1C(C(=O)OCc2ccccc2)N1C(=O)[C@H]1CCCN1C(=O)[C@H](CC(C)C)NC(=O)OC(C)(C)C (mixture of isomers) |  |  |  |  |  |  |  |  | 

Row | SMILES | Ki [2] [µM] | EC50 [3] [nM] | inhibition [4] | EC50 [5] [µM] | Ki [6] [µM] | Ki [7] [nM] | inhibition [10] | inhibition [11] | inhibition [13] [%] | inhibition [14] [%] | inhibition [15] [%] | Ki [1] [µM] | Activity [8] [µM] | Ki [9] [nM] | Activity [12] | K [16] [M⁻¹ min⁻¹] | K [17] [M⁻¹ min⁻¹] | K [18] [M⁻¹ min⁻¹] | K [19] [M⁻¹ min⁻¹] | K [20] [M⁻¹ min⁻¹]
19 | CC(C)C[C@@H](NC(=O)OC(C)(C)C)C(=O)N1CCC[C@H]1C(=O)N1[C@@H](C(=O)OCc2ccccc2)[C@@H]1C(=O)OCc1ccccc1 | 30.9 |  | inactive | 95 |  | 3400 | inactive | inactive |  |  |  |  |  | 15200 |  |  |  |  |  | 
20 | CC(C)C[C@H](NC(=O)OC(C)(C)C)C(=O)N1CCC[C@@H]1C(=O)N1C(C(=O)O)C1C(=O)OCCc1ccccc1 (mixture of isomers) |  |  | inactive |  | 1.26 | 440 | > 50% | < 50% | > 50 | > 50 | < 50 |  |  | 160 |  | 11100 | 178000 | 191000 |  | 
21 | CC(C)C[C@H](NC(=O)OC(C)(C)C)C(=O)N1CCC[C@@H]1C(=O)N1C(C(=O)OCc2ccccc2)C1C(=O)OCc1ccccc1 (mixture of isomers) | 1.8 |  | inactive |  |  | 2800 | > 50% | > 50% | > 50 | > 50 | > 50 | 12 |  | 1500 |  |  |  |  |  | 
22 | CC(C)C[C@H](NC(=O)OC(C)(C)C)C(=O)N1CCC[C@@H]1C(=O)N1C(C(=O)O)C1C(=O)OCC1CCCCC1 (mixture of isomers) | 0.71 |  | inactive |  | 0.45 | 1790 | > 50% | > 50% | > 50 | > 50 | > 50 | 7.3 |  | 120 |  | 76800 | 494000 | 53600 | 323000 | 13900
